The text below walks through data of patent publication US20170073679A1, “Compositions and Methods for Selective Delivery of Oligonucleotide Molecules to Cell Types” (nLife Therapeutics, S.L., priority 2012, published 2017).

In data set [1] the target is human recombinant GHS-R1a (Homo sapiens, UniProt Q92847). Conditions: cited from earlier work.
For a further data set, the system named is rat pituitary cells. Conditions: read-out: EC50, stimulates GH release; cited from earlier work.
Data set [2] deals with obese animals (high fat diet). The data set can be described thus: Physiological effect of tabimorelin conjugated antisense oligonucleotides in a high-fat diet model of obesity. It is filed as in vivo. Conditions: 10 doses in 12 days of 30 μg intranasally. How it is done:
Animals were fed a high fat diet (HFD) (TD.06414, 60% fat, Harlan) or a standard diet (Control diet: 2014, Harlan) for 12 weeks. Those obese animals that weighed more than the mean body weight of the lean animals plus 2 times the lean standard deviation were selected:
Obese BW>lean BW mean+2×lean SD
The day of administration animals were fasted for 8 hours. Under isofluorane anesthesia, 10 doses in 12 days of 30 μg of the following molecules were intranasally administered (5 μl per nostril): • Vehicle (VH) (1×PBS) • TAB-NS-ASO4 (NS)(Non-sense sequence directed with tabimorelin) • TAB-SOCS3-ASO4 (SOCS3)(antisense sequence against socs3 mRNA directed with tabimorelin) • TAB-PTP1B-ASO4 (PTP1B)(antisense sequence against ptp1b mRNA directed with tabimorelin
Body weight and food intake were daily monitored. 48 hours after the last administration animals were sacrificed and tissues collected for further analysis.

d = 2'-deoxy (DNA); m = 2'-O-methyl

human recombinant GHS-R1a, sequence (Q92847 whole entry): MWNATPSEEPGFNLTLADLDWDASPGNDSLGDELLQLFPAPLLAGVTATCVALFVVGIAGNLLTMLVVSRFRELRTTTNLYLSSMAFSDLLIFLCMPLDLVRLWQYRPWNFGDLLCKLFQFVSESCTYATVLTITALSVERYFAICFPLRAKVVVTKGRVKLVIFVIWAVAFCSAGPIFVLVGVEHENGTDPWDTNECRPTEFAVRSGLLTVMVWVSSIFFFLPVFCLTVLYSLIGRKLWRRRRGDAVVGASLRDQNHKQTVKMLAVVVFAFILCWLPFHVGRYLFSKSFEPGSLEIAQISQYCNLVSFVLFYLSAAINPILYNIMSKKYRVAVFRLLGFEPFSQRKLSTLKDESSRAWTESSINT

What is called Ki is a dissociation constant, usually derived from enzyme kinetics or from competition with a known ligand. In general, EC50 refers to the concentration giving half of the maximal effect. As for `CNC(=O)[C@@H](Cc1ccccc1)N(C)C(=O)[C@@H](Cc1ccc2ccccc2c1)N(C)C(=O)/C=C/CC(C)(C)N` [Tabimorelin], the inhibitory constant (Ki) in data set [1] was 50 nM. In addition, the 50% effective concentration (EC50) with rat pituitary cells was 2.7 nM.
Turning to “TAB-SOCS3-ASO4: antisense sequence against socs3 mRNA directed with tabimorelin; 20-mer with 10 DNA core and 2′-o-methyl flanks (antisense GUGGCGCTGGTCCGAGCTGT; sugars from the 5' end m5 d10 m5, backbone and methylation of C not given here; tabimorelin conjugate attached)”, the “Daily BW gain (mean of changes in daily body weight)” value in data set [2] is reported as “not being significantly different between groups, a decrease was observed”. Also, in data set [2] (vs VH and NS), the “Cumulative body weight (BW) gain” value is on record as “gained significantly less weight than control animals”, the “Cumulative food intake (FI)” value was “significantly decreased” and the “Daily FI (mean of daily food ingestion)” value is given as “decreased”.
